In patent US9957273B2, “5-substituted 7- [4-(2-pyridyl)phenylmethylamino] -3-isopropylpyrazolo4,3-D]pyrimidine derivatives, use thereof as medicaments, and pharmaceutical compositions” (USTAV EXPERIMENTALNI BOTANIKY AV CR, V.V.I., priority 2015, dated 2018):
Read-outs that look alike come from different tables or passages of the source.

How the values were obtained:
CDK5/p35 = target: T1, CDK5/p35 (Homo sapiens, UniProt Q00535); test: CDK5/p35 kinase inhibition (33P-ATP, histone H1); format: biochemical; settings: 0.15 μM ATP
T1 construct: purchased ProQinase GmbH
T1 sequence (Q00535 whole entry): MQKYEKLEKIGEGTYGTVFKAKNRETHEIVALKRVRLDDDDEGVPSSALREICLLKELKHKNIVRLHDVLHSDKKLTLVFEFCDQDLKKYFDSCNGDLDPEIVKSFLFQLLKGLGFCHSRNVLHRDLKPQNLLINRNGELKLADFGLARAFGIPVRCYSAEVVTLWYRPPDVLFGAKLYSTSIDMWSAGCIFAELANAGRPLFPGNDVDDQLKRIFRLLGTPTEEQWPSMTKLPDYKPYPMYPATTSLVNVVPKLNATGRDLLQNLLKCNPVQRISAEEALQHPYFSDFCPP
T1 sequence (Q15078 whole entry partner): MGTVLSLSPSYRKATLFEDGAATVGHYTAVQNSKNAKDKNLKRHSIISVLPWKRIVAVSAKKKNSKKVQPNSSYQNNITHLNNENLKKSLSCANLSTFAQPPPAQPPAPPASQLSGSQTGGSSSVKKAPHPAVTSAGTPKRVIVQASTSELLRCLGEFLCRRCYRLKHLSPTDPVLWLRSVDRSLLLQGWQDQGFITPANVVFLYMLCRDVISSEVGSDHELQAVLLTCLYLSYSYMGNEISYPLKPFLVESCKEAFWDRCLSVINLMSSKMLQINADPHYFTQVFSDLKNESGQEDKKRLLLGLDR
Description: CDK2/Cyclin E kinase was produced in Sf9 insect cells via baculoviral infection and purified on a NiNTA column (Qiagen). […] CDK5/p35 was purchased from ProQinase GmbH.
(§1) The reactions were stopped by adding 5 μL of 3% aq H3PO4. Aliquots were spotted onto P-81 phosphocellulose (Whatman), washed 3× with 0.5% aq H3PO4 and finally air-dried.

[1] = test system: PANC-1 (pancreatic carcinoma); test: MTT cytotoxicity assay, solid cancer cell line PANC-1; format: cell-based; settings: Homo sapiens, PANC-1, 72 h, three days
Description: (§2) The compounds were assayed using the following cell lines: G361 (malignant melanoma), MCF7 (breast adenocarcinoma), PLC/PRF/5 (liver hepatoma), PANC-1 (pancreatic carcinoma) and HCT116 (colon carcinoma). All cell lines were grown in DMEM medium supplemented with fetal bovine serum and L-glutamine and maintained at 37° C. in a humidified atmosphere with 5% CO2. For cytotoxicity assays, 4000-10000 cells were seeded into each well of a 96 well plate, allowed to stabilize for at least 16 h and then tested compounds were added at various concentrations ranging from 100 to 0.01 μM in triplicates. After three days, MTT solution (5 mg/ml; Sigma, St. Louis, USA) was added to cells and medium was replaced with DMSO after five hours. The absorbance was measured at 620 nm by employing a microplate reader. MTT assays were repeated 3 times for each drug application and untreated cells were used as reference.

[2] = test system: PLC/PRF/5 (liver hepatoma); test: MTT cytotoxicity assay, solid cancer cell line PLC/PRF/5; format: cell-based; settings: Homo sapiens, PLC-PRF-5, 72 h, three days
Description: as §2

[3] = test system: MV4;11 (acute myelocytic leukemia); test: MTT cytotoxicity assay, leukemic cell line MV4;11; format: cell-based; settings: three days
Excerpt: (§3) Cytotoxicity of the compounds is the major property determining their antileukemic efficacy in vivo. One of the parameters used, as the basis for cytotoxicity assays, is the metabolic activity of viable cells. For example, a microtiter assay, which uses (3-(4,5-dimethylthiazol-2-yl)-2,5-diphenyltetrazolium bromide (MTT), is widely used to quantitate cell proliferation and cytotoxicity. This assay is widely used in drug screening programs and in chemosensitivity testing. Because only metabolically active living cells reduce MTT to correspond purple formazan dye, these assays detect viable cells exclusively. The quantity of reduced MTT corresponds to the number of vital cells in the culture.
as §2, with “following leukemic” for “following”, “K562 (human chronic myelogenous leukaemia), HL60 (human promyelocytic leukaemia), CEM (human lymphoblastoid leukaemia), THP1 (human monocytic cell line), MV4; 11 (acute myelocytic leukemia).” for “G361 (malignant melanoma), MCF7 (breast adenocarcinoma), PLC/PRF/5 (liver hepatoma), PANC-1 (pancreatic carcinoma) and HCT116 (colon carcinoma).”, “RPMI” for “DMEM”, “2000-5000” for “4000-10000”, “of” for “of a”, “8” for “16”

[4] = test system: CEM (human lymphoblastoid leukaemia); test: MTT cytotoxicity assay, leukemic cell line CEM; format: cell-based; settings: three days
Excerpt: as §3
as §2, with “following leukemic” for “following”, “K562 (human chronic myelogenous leukaemia), HL60 (human promyelocytic leukaemia), CEM (human lymphoblastoid leukaemia), THP1 (human monocytic cell line), MV4; 11 (acute myelocytic leukemia).” for “G361 (malignant melanoma), MCF7 (breast adenocarcinoma), PLC/PRF/5 (liver hepatoma), PANC-1 (pancreatic carcinoma) and HCT116 (colon carcinoma).”, “RPMI” for “DMEM”, “2000-5000” for “4000-10000”, “of” for “of a”, “8” for “16”

HCT116 (colon carcinoma) = test: MTT cytotoxicity assay, solid cancer cell line HCT116; format: cell-based; settings: Homo sapiens, HCT-116, 72 h, three days
Description: as §2

[5] = test system: HL60 (human promyelocytic leukaemia); test: MTT cytotoxicity assay, leukemic cell line HL60; format: cell-based; settings: three days
Excerpt: as §3
as §2, with “following leukemic” for “following”, “K562 (human chronic myelogenous leukaemia), HL60 (human promyelocytic leukaemia), CEM (human lymphoblastoid leukaemia), THP1 (human monocytic cell line), MV4; 11 (acute myelocytic leukemia).” for “G361 (malignant melanoma), MCF7 (breast adenocarcinoma), PLC/PRF/5 (liver hepatoma), PANC-1 (pancreatic carcinoma) and HCT116 (colon carcinoma).”, “RPMI” for “DMEM”, “2000-5000” for “4000-10000”, “of” for “of a”, “8” for “16”

[6] = test system: THP1 (human monocytic cell line); test: MTT cytotoxicity assay, leukemic cell line THP1; format: cell-based; settings: three days
Excerpt: as §3
as §2, with “following leukemic” for “following”, “K562 (human chronic myelogenous leukaemia), HL60 (human promyelocytic leukaemia), CEM (human lymphoblastoid leukaemia), THP1 (human monocytic cell line), MV4; 11 (acute myelocytic leukemia).” for “G361 (malignant melanoma), MCF7 (breast adenocarcinoma), PLC/PRF/5 (liver hepatoma), PANC-1 (pancreatic carcinoma) and HCT116 (colon carcinoma).”, “RPMI” for “DMEM”, “2000-5000” for “4000-10000”, “of” for “of a”, “8” for “16”

[7] = test system: G361 (malignant melanoma); test: MTT cytotoxicity assay, solid cancer cell line G361; format: cell-based; settings: Homo sapiens, G-361, 72 h, three days
Description: as §2

[8] = test system: HUVECs (human umbilical vein endothelial cells); test: HUVEC proliferation assay (crystal violet); format: cell-based; settings: 72 h, read-out: Inhibition of proliferation (EC50)
Description: To verify that novel compounds have anti-vascularisation properties, we analyzed their influence on the proliferation and migration of HUVECs. HUVECs (human umbilical vein endothelial cells) were purchased from Promocell (Heidelberg, Germany) and cultured in endothelial cell growth medium (ECGM, Promocell, Heidelberg, Germany) containing 10% FCS (Biochrom, Berlin, Germany). Experiments were performed using cells at passage 3.
For proliferation assay, 1.5×10^3 HUVECs were cultured for 24 h. Afterwards, cells were either left untreated or treated with novel compounds for 72 h. Proliferation assay was performed using crystal violet as described previously (Koltermann et al. 2007, Cell Mol. Life Sci. 64:1715-1722).

[9] = test system: K562 (human chronic myelogenous leukaemia); test: MTT cytotoxicity assay, leukemic cell line K562; format: cell-based; settings: three days
Excerpt: as §3
as §2, with “following leukemic” for “following”, “K562 (human chronic myelogenous leukaemia), HL60 (human promyelocytic leukaemia), CEM (human lymphoblastoid leukaemia), THP1 (human monocytic cell line), MV4; 11 (acute myelocytic leukemia).” for “G361 (malignant melanoma), MCF7 (breast adenocarcinoma), PLC/PRF/5 (liver hepatoma), PANC-1 (pancreatic carcinoma) and HCT116 (colon carcinoma).”, “RPMI” for “DMEM”, “2000-5000” for “4000-10000”, “of” for “of a”, “8” for “16”

[10] = test system: MCF7 (breast adenocarcinoma); test: MTT cytotoxicity assay, solid cancer cell line MCF7; format: cell-based; settings: Homo sapiens, MCF7, 72 h, three days
Description: as §2

CDK2/Cyclin E = target: T2, CDK2/Cyclin E (Homo sapiens, UniProt P24941); test: CDK2/Cyclin E kinase inhibition (33P-ATP, histone H1); format: biochemical; settings: 15 μM ATP
T2 construct: made in house; host or cells: Sf9 insect cells (baculovirus)
Description: CDK2/Cyclin E kinase was produced in Sf9 insect cells via baculoviral infection and purified on a NiNTA column (Qiagen). The kinase reactions were assayed with 1 mg/mL histone H1 in the presence of 15 μM ATP, 0.05 μCi [γ-^33P]ATP and of the test compound in a final volume of 10 μL, all in a reaction buffer (60 mM HEPES-NaOH, pH 7.5, 3 mM MgCl2, 3 mM MnCl2, 3 μM Na-orthovanadate, 1.2 mM DTT, 2.5 μg/50 μl PEG20.000). CDK5/p35 was purchased from ProQinase GmbH. The kinase reactions were assayed with 1 mg/mL histone H1 in the presence of 0.15 μM ATP, 0.05 μCi [γ-^33P]ATP and of the test compound in a final volume of 10 μL, all in a reaction buffer (60 mM HEPES-NaOH, pH 7.5, 3 mM MgCl2, 3 mM MnCl2, 3 μM Na-orthovanadate, 1.2 mM DTT, 2.5 μg/50 μl PEG20.000).
as §1

Compound	IC50 (CDK5/p35)	IC50 [1]	IC50 [2]	IC50 ([3]; Homo sapiens, MV4-11, 72 h)	IC50 ([4]; Homo sapiens, 72 h)	IC50 (HCT116 (colon carcinoma))	IC50 ([5]; Homo sapiens, HL-60, 72 h)	IC50 ([6]; Homo sapiens, THP-1, 72 h)	IC50 [7]	EC50 ([8]; Homo sapiens, HUVEC)	IC50 ([9]; Homo sapiens, K562, 72 h)	IC50 [10]	EC50 [8]	IC50 (CDK2/Cyclin E)	IC50 [3]	IC50 [9]	IC50 [4]	IC50 [5]	IC50 [6]
CC(C)c1n[nH]c2c(NCc3ccc(-c4ccccn4)cc3)ncnc12 [Compound 2]	0.183 µM	0.46 µM	0.97 µM	0.47 µM	0.8 µM	1.2 µM	0.92 µM	0.56 µM	0.78 µM	–	–	–	–	–	–	–	–	–	–
CSc1nc(NCc2ccc(-c3ccccn3)cc2)c2[nH]nc(C(C)C)c2n1 [Compound 5]	0.229 µM	0.65 µM	0.7 µM	0.6 µM	0.94 µM	1.3 µM	0.86 µM	0.32 µM	0.24 µM	234 nM	0.78 µM	0.81 µM	–	–	–	–	–	–	–
CC(C)c1n[nH]c2c(NCc3ccc(-c4ccccn4)cc3)nc(S(C)(=O)=O)nc12 [Compound 8, 3-Isopropyl-5-methylsulfonyl-7-[4-(2-pyridyl)benzyl]amino-1(2)H-pyrazolo[4,3-d]pyridine]	–	–	–	–	–	–	–	–	–	–	–	–	569 nM	–	–	–	–	–	–
CC(C)c1[nH]nc2c(NCc3ccc(-c4ccccn4)cc3)nc(N3CCOCC3)nc12 [Compound 9]	0.005 µM	0.3 µM	0.21 µM	0.36 µM	0.07 µM	0.42 µM	0.1 µM	0.18 µM	0.25 µM	136 nM	0.11 µM	0.16 µM	–	–	–	–	–	–	–
CC(C)c1[nH]nc2c(NCc3ccc(-c4ccccn4)cc3)nc(N3CCCCC3)nc12 [Compound 14]	0.18 µM	–	–	–	–	–	–	–	–	–	–	–	–	0.042 µM	–	–	–	–	–
CC(C)c1[nH]nc2c(NCc3ccc(-c4ccccn4)cc3)nc(N3CCN(CCO)CC3)nc12 [Compound 17]	0.422 µM	0.34 µM	0.73 µM	0.37 µM	0.11 µM	0.4 µM	0.26 µM	0.3 µM	0.24 µM	95 nM	0.15 µM	0.19 µM	–	–	–	–	–	–	–
CC(C)c1[nH]nc2c(NCc3ccc(-c4ccccn4)cc3)nc(NCCCO)nc12 [Compound 29]	0.0149 µM	–	–	0.27 µM	0.09 µM	–	0.18 µM	0.14 µM	–	–	0.1 µM	–	–	0.039 µM	–	–	–	–	–
CC(C)c1n[nH]c2c(NCc3ccc(-c4ccccn4)cc3)nc(N[C@H](C)CCO)nc12 [Compound 31]	–	–	–	–	–	–	–	–	–	–	–	–	–	–	0.31 µM	0.39 µM	0.21 µM	0.24 µM	0.26 µM
CC(C)c1n[nH]c2c(NCc3ccc(-c4ccccn4)cc3)nc(NCC(O)CO)nc12 (stereo not drawn) [Compound 35]	0.017 µM	–	–	0.2 µM	0.18 µM	–	0.17 µM	0.26 µM	–	–	0.24 µM	–	–	–	–	–	–	–	–
CC(C)c1n[nH]c2c(NCc3ccc(-c4ccccn4)cc3)nc(NCCCN)nc12 [Compound 41]	–	–	–	–	–	–	–	–	–	–	–	–	–	–	0.35 µM	0.47 µM	0.43 µM	0.56 µM	0.27 µM
CCN(CC)CCNc1nc(NCc2ccc(-c3ccccn3)cc2)c2[nH]nc(C(C)C)c2n1 [Compound 50]	–	–	–	–	–	–	–	–	–	–	–	–	–	–	0.17 µM	0.18 µM	0.11 µM	0.14 µM	0.08 µM
CC(C)c1[nH]nc2c(NCc3ccc(-c4ccccn4)cc3)nc(NCCN3CCCC3)nc12 [Compound 55]	0.182 µM	–	–	–	–	–	–	–	–	–	–	–	–	0.64 µM	–	–	–	–	–
CC(C)c1n[nH]c2c(NCc3ccc(-c4ccccn4)cc3)nc(NCC(C)N3CC3)nc12 (stereo not drawn) [Compound 57]	–	–	–	–	–	–	–	–	–	–	–	–	–	–	0.53 µM	0.44 µM	0.27 µM	0.32 µM	0.29 µM
CC(C)c1[nH]nc2c(NCc3ccc(-c4ccccn4)cc3)nc(N[C@H]3CC[C@H](N)CC3)nc12 [Compound 67]	0.179 µM	0.5 µM	0.29 µM	0.19 µM	0.23 µM	0.37 µM	0.24 µM	0.3 µM	0.36 µM	69 nM	0.59 µM	0.47 µM	–	–	–	–	–	–	–
COc1ccc(CNc2nc(NCc3ccc(-c4ccccn4)cc3)c3n[nH]c(C(C)C)c3n2)cc1 [Compound 73]	4.42 µM	0.44 µM	3.94 µM	0.97 µM	0.89 µM	0.99 µM	0.78 µM	0.67 µM	2.62 µM	2280 nM	3.95 µM	5.3 µM	–	–	–	–	–	–	–
CC(C)c1n[nH]c2c(NCc3ccc(-c4ccccn4)cc3)nc(NCc3ccccc3Cl)nc12 [Compound 81]	–	–	–	–	–	–	–	–	–	–	–	–	1330 nM	–	–	–	–	–	–
